Results reported in ChEMBL document CHEMBL1201862, “PubChem BioAssay data set” (2004).
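Five compound concentrations were applied to cells in 96-well plates for 48 hours; endpoints were derived by simple linear interpolation of the resulting dose-response curve. GI50 marks 50% less growth.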 The source made the active and inactive calls. Rule as the data show it: active = GI50 up to about 1.1 µM and inactive = higher.

Assays:
Experiment in all cases: inhibition of tumour cell growth, NCI panel, 48 h
EKVX = system: EKVX
LOX IMVI = system: LOX IMVI
CCRF-CEM = system: CCRF-CEM
RPMI-8226 = system: RPMI-8226
MDA-MB-231 = system: MDA-MB-231
UACC-257 = system: UACC-257
OVCAR-4 = system: OVCAR-4
CAKI-1 = system: CAKI-1
SNB-75 = system: SNB-75
OVCAR-5 = system: OVCAR-5
A498 = system: A498
IGROV-1 = system: IGROV-1
NCI-H226 = system: NCI-H226
ACHN = system: ACHN
786-0 = system: 786-0
NCI-H460 = system: NCI-H460
RXF 393 = system: RXF 393
SK-MEL-5 = system: SK-MEL-5
M14 = system: M14
Malme-3M = system: Malme-3M
HCT-116 = system: HCT-116
COLO 205 = system: COLO 205
SR = system: SR
PC-3 = system: PC-3
UACC-62 = system: UACC-62
T47D = system: T47D
SK-MEL-28 = system: SK-MEL-28
SW-620 = system: SW-620
SF-268 = system: SF-268
HOP-92 = system: HOP-92
MDA-MB-435 = system: MDA-MB-435
MDA-N = system: MDA-N
NCI/ADR-RES = system: NCI/ADR-RES
SN12C = system: SN12C
HCC 2998 = system: HCC 2998
BT-549 = system: BT-549
TK-10 = system: TK-10
HOP-62 = system: HOP-62
UO-31 = system: UO-31
MOLT-4 = system: MOLT-4
SK-MEL-2 = system: SK-MEL-2
SK-OV-3 = system: SK-OV-3
NCI-H522 = system: NCI-H522
HT-29 = system: HT-29
SF-295 = system: SF-295
A549 = system: A549
SNB-19 = system: SNB-19
U-251 = system: U-251
OVCAR-8 = system: OVCAR-8
Hs-578T = system: Hs-578T
HL-60 = system: HL-60
K562 = system: K562
HCT-15 = system: HCT-15
NCI-H23 = system: NCI-H23
OVCAR-3 = system: OVCAR-3
MCF7 = system: MCF7
DU-145 = system: DU-145
KM12 = system: KM12
SF-539 = system: SF-539

C=C(C)[C@@H](O)[C@H](O)C[C@H](C)C1CC[C@]2(C)C1=CC[C@@H]1[C@@]3(C)CC[C@@H](OC(C)=O)C(C)(C)[C@@H]3C[C@@H](OC3OC(COC(C)=O)C(O)C(O)C3O)[C@]12C (stereo partly drawn)
GI50 (EKVX): 3.03 µM (inactive)
GI50 (LOX IMVI): 1.73 µM (inactive)
GI50 (CCRF-CEM): 2.29 µM (inactive)
GI50 (RPMI-8226): 2.01 µM (inactive)
GI50 (MDA-MB-231): 2.21 µM (inactive)
GI50 (UACC-257): 2.89 µM (inactive)
GI50 (OVCAR-4): 2.96 µM (inactive)
GI50 (CAKI-1): 3.52 µM (inactive)
GI50 (SNB-75): 2.45 µM (inactive)
GI50 (OVCAR-5): 1.87 µM (inactive)
GI50 (A498): 3.36 µM (inactive)
GI50 (IGROV-1): 2.4 µM (inactive)
GI50 (NCI-H226): 3.05 µM (inactive)
GI50 (ACHN): 2.44 µM (inactive)
GI50 (786-0): 3.44 µM (inactive)
GI50 (NCI-H460): 2.45 µM (inactive)
GI50 (RXF 393): 1.98 µM (inactive)
GI50 (SK-MEL-5): 2.1 µM (inactive)
GI50 (M14): 2.72 µM (inactive)
GI50 (Malme-3M): 2.06 µM (inactive)
GI50 (HCT-116): 2.27 µM (inactive)
GI50 (COLO 205): 1.93 µM (inactive)
GI50 (SR): 1.99 µM (inactive)
GI50 (PC-3): 2.31 µM (inactive)
GI50 (UACC-62): 1.9 µM (inactive)
GI50 (T47D): 2.48 µM (inactive)
GI50 (SK-MEL-28): 2.54 µM (inactive)
GI50 (SW-620): 3.34 µM (inactive)
GI50 (SF-268): 2.78 µM (inactive)
GI50 (HOP-92): 2.37 µM (inactive)
GI50 (MDA-MB-435): 2 µM (inactive)
GI50 (MDA-N): 2.81 µM (inactive)
GI50 (NCI/ADR-RES): 15 µM (inactive)
GI50 (SN12C): 3.21 µM (inactive)
GI50 (HCC 2998): 0.354 µM (active)
GI50 (BT-549): 3.33 µM (inactive)
GI50 (TK-10): 3.39 µM (inactive)
GI50 (HOP-62): 2.99 µM (inactive)
GI50 (UO-31): 3.48 µM (inactive)
GI50 (MOLT-4): 2.17 µM (inactive)
GI50 (SK-MEL-2): 1.77 µM (inactive)
GI50 (SK-OV-3): 3.48 µM (inactive)
GI50 (NCI-H522): 1.67 µM (inactive)
GI50 (HT-29): 2.02 µM (inactive)
GI50 (SF-295): 2.16 µM (inactive)
GI50 (A549): 3.48 µM (inactive)
GI50 (SNB-19): 3.71 µM (inactive)
GI50 (U-251): 2.32 µM (inactive)
GI50 (OVCAR-8): 4.04 µM (inactive)
GI50 (Hs-578T): 2.81 µM (inactive)
GI50 (HL-60): 2.05 µM (inactive)
GI50 (K562): 2.02 µM (inactive)
GI50 (HCT-15): 3.37 µM
GI50 (NCI-H23): 4.06 µM (inactive)
GI50 (OVCAR-3): 2.17 µM (inactive)
GI50 (MCF7): 2.96 µM (inactive)
GI50 (DU-145): 3.4 µM (inactive)
GI50 (KM12): 1.6 µM (inactive)
GI50 (SF-539): 3.66 µM (inactive)

O=C(O)C1C2c3ccccc3C(c3ccccc32)C1C(=O)NCC1CC1 (stereo not drawn)
GI50 (EKVX): 71.9 µM (inactive)
GI50 (LOX IMVI): 65.8 µM (inactive)
GI50 (CCRF-CEM): 31.2 µM (inactive)
GI50 (RPMI-8226): 24.7 µM (inactive)
GI50 (MDA-MB-231): > 100 µM (inactive)
GI50 (UACC-257): 19.1 µM (inactive)
GI50 (OVCAR-4): 79.1 µM (inactive)
GI50 (CAKI-1): > 100 µM (inactive)
GI50 (SNB-75): 84.5 µM (inactive)
GI50 (OVCAR-5): > 100 µM (inactive)
GI50 (A498): 78 µM (inactive)
GI50 (IGROV-1): 72.6 µM (inactive)
GI50 (NCI-H226): 60.4 µM (inactive)
GI50 (ACHN): 78 µM (inactive)
GI50 (786-0): > 100 µM (inactive)
GI50 (NCI-H460): 40.2 µM (inactive)
GI50 (RXF 393): 97.5 µM (inactive)
GI50 (SK-MEL-5): 66.8 µM (inactive)
GI50 (M14): 61.9 µM (inactive)
GI50 (Malme-3M): > 100 µM (inactive)
GI50 (HCT-116): 47.4 µM (inactive)
GI50 (COLO 205): 54.5 µM (inactive)
GI50 (SR): 45 µM (inactive)
GI50 (PC-3): 53.7 µM (inactive)
GI50 (UACC-62): 38.5 µM (inactive)
GI50 (T47D): 56.8 µM (inactive)
GI50 (SK-MEL-28): > 100 µM (inactive)
GI50 (SW-620): 50.2 µM (inactive)
GI50 (SF-268): 94.4 µM (inactive)
GI50 (HOP-92): 70.5 µM (inactive)
GI50 (MDA-MB-435): 51.2 µM (inactive)
GI50 (MDA-N): 48.2 µM (inactive)
GI50 (NCI/ADR-RES): 32.4 µM (inactive)
GI50 (SN12C): 55.2 µM (inactive)
GI50 (HCC 2998): 13.5 µM (inactive)
GI50 (BT-549): 60 µM (inactive)
GI50 (TK-10): 32.4 µM (inactive)
GI50 (HOP-62): 68.2 µM (inactive)
GI50 (UO-31): 71.4 µM (inactive)
GI50 (MOLT-4): 29.9 µM (inactive)
GI50 (SK-MEL-2): 91.6 µM (inactive)
GI50 (SK-OV-3): 56.2 µM (inactive)
GI50 (NCI-H522): 29.9 µM (inactive)
GI50 (HT-29): 71.6 µM (inactive)
GI50 (SF-295): 46.2 µM (inactive)
GI50 (A549): 62.2 µM (inactive)
GI50 (SNB-19): > 100 µM (inactive)
GI50 (U-251): 47 µM (inactive)
GI50 (OVCAR-8): 55 µM (inactive)
GI50 (Hs-578T): 63.5 µM (inactive)
GI50 (HL-60): 24.8 µM (inactive)
GI50 (K562): 45.3 µM (inactive)
GI50 (HCT-15): 48.3 µM
GI50 (NCI-H23): 47.9 µM (inactive)
GI50 (OVCAR-3): 46.8 µM (inactive)
GI50 (MCF7): 52.1 µM (inactive)
GI50 (DU-145): 81.1 µM (inactive)
GI50 (KM12): 55.3 µM (inactive)
GI50 (SF-539): > 100 µM (inactive)
